Results as given in PubChem BioAssay (NCI).
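Five concentrations, 48 hours, 96-well plates. At the TGI there is no net growth.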

Legend:
Assay in all cases: inhibition of tumour cell growth, NCI panel, 48 h
HOP-92 NSCLC = test system: HOP-92 NSCLC
OVCAR-3 ovarian = test system: OVCAR-3 ovarian
A498 renal = test system: A498 renal
SF-539 CNS = test system: SF-539 CNS
DMS 273 small cell lung = test system: DMS 273 small cell lung
K-562 leukemia = test system: K-562 leukemia
CCRF-CEM leukemia = test system: CCRF-CEM leukemia
NCI-H226 lung = test system: NCI-H226 lung
RPMI-8226 leukemia = test system: RPMI-8226 leukemia
HCT-116 colon = test system: HCT-116 colon
NCI-H522 lung = test system: NCI-H522 lung
HCC-2998 colon = test system: HCC-2998 colon
CAKI-1 renal = test system: CAKI-1 renal
786-0 renal = test system: 786-0 renal
LXFL 529 NSCLC = test system: LXFL 529 NSCLC
LOX IMVI melanoma = test system: LOX IMVI melanoma
MALME-3M melanoma = test system: MALME-3M melanoma
SF-268 CNS = test system: SF-268 CNS
ACHN renal = test system: ACHN renal
SK-MEL-28 melanoma = test system: SK-MEL-28 melanoma
RXF-631 renal = test system: RXF-631 renal
EKVX NSCLC = test system: EKVX NSCLC
XF 498 CNS = test system: XF 498 CNS
UO-31 renal = test system: UO-31 renal
IGROV1 ovarian = test system: IGROV1 ovarian
OVCAR-5 ovarian = test system: OVCAR-5 ovarian
SK-MEL-2 melanoma = test system: SK-MEL-2 melanoma
COLO 205 colon = test system: COLO 205 colon
SNB-78 CNS = test system: SNB-78 CNS
MOLT-4 leukemia = test system: MOLT-4 leukemia
DMS 114 small cell lung = test system: DMS 114 small cell lung
KM12 colon = test system: KM12 colon
M14 melanoma = test system: M14 melanoma
OVCAR-4 ovarian = test system: OVCAR-4 ovarian
TK-10 renal = test system: TK-10 renal
KM20L2 colon = test system: KM20L2 colon
UACC-257 melanoma = test system: UACC-257 melanoma
SF-295 CNS = test system: SF-295 CNS
HOP-62 NSCLC = test system: HOP-62 NSCLC
UACC-62 melanoma = test system: UACC-62 melanoma
SK-OV-3 ovarian = test system: SK-OV-3 ovarian
DLD-1 colon = test system: DLD-1 colon
A549 NSCLC = test system: A549 NSCLC
SW-620 colon = test system: SW-620 colon
SNB-75 CNS = test system: SNB-75 CNS
HCT-15 colon = test system: HCT-15 colon
NCI-H23 lung = test system: NCI-H23 lung
M19-MEL melanoma = test system: M19-MEL melanoma
SNB-19 CNS = test system: SNB-19 CNS
HL-60(TB) leukemia = test system: HL-60(TB) leukemia
HT29 colon = test system: HT29 colon
NCI-H460 lung = test system: NCI-H460 lung
RXF 393 renal = test system: RXF 393 renal
U251 CNS = test system: U251 CNS
OVCAR-8 ovarian = test system: OVCAR-8 ovarian
SN12C renal = test system: SN12C renal
SK-MEL-5 melanoma = test system: SK-MEL-5 melanoma
HOP-18 NSCLC = test system: HOP-18 NSCLC

COC(=O)C1(C(=O)OC)CC2c3c(c4ccccc4n3C)CC(C1=O)N2Cc1ccccc1 (configuration not stated)
TGI (HOP-92 NSCLC): > 100 µM | TGI (OVCAR-3 ovarian): > 100 µM | TGI (A498 renal): > 100 µM | TGI (SF-539 CNS): > 100 µM | TGI (DMS 273 small cell lung): > 100 µM | TGI (K-562 leukemia): > 100 µM | TGI (CCRF-CEM leukemia): > 100 µM | TGI (NCI-H226 lung): > 100 µM | TGI (RPMI-8226 leukemia): > 100 µM | TGI (HCT-116 colon): > 100 µM | TGI (NCI-H522 lung): > 100 µM | TGI (HCC-2998 colon): > 100 µM | TGI (CAKI-1 renal): > 100 µM | TGI (786-0 renal): > 100 µM | TGI (LXFL 529 NSCLC): > 100 µM | TGI (LOX IMVI melanoma): > 100 µM | TGI (MALME-3M melanoma): > 100 µM | TGI (SF-268 CNS): > 100 µM | TGI (ACHN renal): > 100 µM | TGI (SK-MEL-28 melanoma): > 100 µM | TGI (RXF-631 renal): > 100 µM | TGI (EKVX NSCLC): > 100 µM | TGI (XF 498 CNS): > 100 µM | TGI (UO-31 renal): > 100 µM | TGI (IGROV1 ovarian): > 100 µM | TGI (OVCAR-5 ovarian): > 100 µM | TGI (SK-MEL-2 melanoma): > 100 µM | TGI (COLO 205 colon): > 100 µM | TGI (SNB-78 CNS): > 100 µM | TGI (MOLT-4 leukemia): > 100 µM | TGI (DMS 114 small cell lung): > 100 µM | TGI (KM12 colon): > 100 µM | TGI (M14 melanoma): > 100 µM | TGI (OVCAR-4 ovarian): > 100 µM | TGI (TK-10 renal): > 100 µM | TGI (KM20L2 colon): > 100 µM | TGI (UACC-257 melanoma): > 100 µM | TGI (SF-295 CNS): > 100 µM | TGI (HOP-62 NSCLC): > 100 µM | TGI (UACC-62 melanoma): > 100 µM | TGI (SK-OV-3 ovarian): > 100 µM | TGI (DLD-1 colon): > 100 µM | TGI (A549 NSCLC): > 100 µM | TGI (SW-620 colon): > 100 µM | TGI (SNB-75 CNS): 92 µM | TGI (HCT-15 colon): > 100 µM | TGI (NCI-H23 lung): > 100 µM | TGI (M19-MEL melanoma): > 100 µM | TGI (SNB-19 CNS): > 100 µM | TGI (HL-60(TB) leukemia): > 100 µM | TGI (HT29 colon): > 100 µM | TGI (NCI-H460 lung): > 100 µM | TGI (RXF 393 renal): > 100 µM | TGI (U251 CNS): > 100 µM | TGI (OVCAR-8 ovarian): > 100 µM | TGI (SN12C renal): > 100 µM | TGI (SK-MEL-5 melanoma): > 100 µM

COC(=O)C(C(=O)C(=O)Nc1ccccc1C(C)=O)c1nc2ccc(Cl)cc2[nH]c1=O (configuration not stated)
TGI (HOP-92 NSCLC): > 100 µM | TGI (OVCAR-3 ovarian): > 100 µM | TGI (A498 renal): > 100 µM | TGI (SF-539 CNS): > 100 µM | TGI (K-562 leukemia): > 100 µM | TGI (CCRF-CEM leukemia): > 100 µM | TGI (NCI-H226 lung): > 100 µM | TGI (RPMI-8226 leukemia): > 100 µM | TGI (HCT-116 colon): > 100 µM | TGI (HCC-2998 colon): > 100 µM | TGI (CAKI-1 renal): > 100 µM | TGI (786-0 renal): > 100 µM | TGI (LXFL 529 NSCLC): > 100 µM | TGI (LOX IMVI melanoma): > 100 µM | TGI (MALME-3M melanoma): > 100 µM | TGI (SF-268 CNS): > 100 µM | TGI (ACHN renal): > 100 µM | TGI (SK-MEL-28 melanoma): > 100 µM | TGI (RXF-631 renal): > 100 µM | TGI (EKVX NSCLC): > 100 µM | TGI (UO-31 renal): > 100 µM | TGI (IGROV1 ovarian): > 100 µM | TGI (OVCAR-5 ovarian): > 100 µM | TGI (SK-MEL-2 melanoma): > 100 µM | TGI (COLO 205 colon): > 100 µM | TGI (SNB-78 CNS): > 100 µM | TGI (MOLT-4 leukemia): > 100 µM | TGI (DMS 114 small cell lung): > 100 µM | TGI (KM12 colon): > 100 µM | TGI (M14 melanoma): > 100 µM | TGI (OVCAR-4 ovarian): > 100 µM | TGI (TK-10 renal): > 100 µM | TGI (KM20L2 colon): > 100 µM | TGI (UACC-257 melanoma): > 100 µM | TGI (SF-295 CNS): > 100 µM | TGI (HOP-62 NSCLC): > 100 µM | TGI (UACC-62 melanoma): > 100 µM | TGI (SK-OV-3 ovarian): > 100 µM | TGI (DLD-1 colon): > 100 µM | TGI (A549 NSCLC): > 100 µM | TGI (SW-620 colon): > 100 µM | TGI (SNB-75 CNS): > 100 µM | TGI (HCT-15 colon): > 100 µM | TGI (HOP-18 NSCLC): > 100 µM | TGI (NCI-H23 lung): > 100 µM | TGI (M19-MEL melanoma): > 100 µM | TGI (SNB-19 CNS): > 100 µM | TGI (HL-60(TB) leukemia): > 100 µM | TGI (HT29 colon): > 100 µM | TGI (NCI-H460 lung): > 100 µM | TGI (RXF 393 renal): > 100 µM | TGI (U251 CNS): > 100 µM | TGI (OVCAR-8 ovarian): > 100 µM | TGI (SN12C renal): > 100 µM | TGI (SK-MEL-5 melanoma): > 100 µM
